Data reported in ChEMBL document CHEMBL3425462, “N-Arylmethylaminoquercitols, a new series of effective antidiabetic agents having α-glucosidase inhibition and antioxidant activity” (Bioorg Med Chem Lett, 2015).

What was measured:
[1] = Inhibition of baker's yeast alpha-glucosidase; set-up: species or system Saccharomyces cerevisiae
[2] = Antioxidant activity of the compound assessed as DPPH radical scavenging activity at 5 mg/ml incubated in dark condition for 15 mins by colorimetric method relative to control; assay type: physicochemical; conditions: 0.25 h
[3] = Antioxidant activity of the compound assessed as DPPH radical scavenging activity incubated in dark condition for 15 mins by colorimetric method; assay type: physicochemical; conditions: 0.25 h
Saccharomyces cerevisiae = test: Inhibition of baker's yeast alpha-glucosidase at 10 mg/ml relative to control

| SMILES | IC50 [1] | Activity [2] | SC50 [3] | inhibition (Saccharomyces cerevisiae) |
| --- | --- | --- | --- | --- |
| CC(C)(C)c1cc(CN[C@H]2C[C@@H](O)[C@H](O)[C@@H](O)[C@H]2O)cc(C(C)(C)C)c1O | 89.1 µM |  | 0.4 mM |  |
| O[C@@H]1[C@@H](O)[C@H](O)C[C@H](NCCc2ccccc2)[C@@H]1O | 1350 µM | < 20% |  |  |
| COc1cc(C=O)ccc1O [VANILLIN] |  |  | 4.9 mM |  |
| O=Cc1ccc(O)cc1 [4-HYDROXYBENZALDEHYDE] |  | < 20% |  |  |
| C[C@H]1O[C@H](O[C@H]2[C@H](O)[C@@H](O)[C@@H](O[C@H]3[C@H](O)[C@@H](O)C(O)O[C@@H]3CO)O[C@@H]2CO)[C@H](O)[C@@H](O)[C@@H]1N[C@H]1C=C(CO)[C@@H](O)[C@H](O)[C@H]1O (stereo partly drawn) [ACARBOSE] | 480 µM | < 20% |  |  |
| CC(C)(C)c1cc(C=O)cc(C(C)(C)C)c1O |  |  | 1.4 mM |  |

Other lines, results leading:

| IC50 [1] | Activity [2] | SC50 [3] | inhibition (Saccharomyces cerevisiae) | SMILES |
| --- | --- | --- | --- | --- |
| 3140 µM | < 20% |  |  | O[C@@H]1[C@@H](O)[C@H](O)C[C@H](NCc2ccc(Br)cc2)[C@@H]1O |
| 94.4 µM |  | 2.1 mM |  | COc1cc(CN[C@H]2C[C@@H](O)[C@H](O)[C@@H](O)[C@H]2O)ccc1O |
|  | < 20% |  | < 30% | O[C@@H]1[C@@H](O)[C@H](O)C[C@H](NCc2cccnc2)[C@@H]1O |
| 111 µM |  | 16.2 mM |  | Oc1ccc(CN[C@H]2C[C@@H](O)[C@H](O)[C@@H](O)[C@H]2O)cc1 |
|  | < 20% |  | < 30% | O[C@@H]1[C@@H](O)[C@H](O)C[C@H](NCc2cccs2)[C@@H]1O |
| 2890 µM | < 20% |  |  | N[C@H]1C[C@@H](O)[C@H](O)[C@@H](O)[C@H]1O |
| 3010 µM | < 20% |  |  | OC(CN[C@H]1C[C@@H](O)[C@H](O)[C@@H](O)[C@H]1O)c1ccccc1 (stereo partly drawn) |
